Measured values from patent EP2987533B1, “7-substituted piperazin-1-yl fluoroquinolone compounds, their use in the treatment of cancer, pharmaceutical compositions and a method for preparation” (priority 2014, dated 2016).

Key:
[1] = test system: OVCAR-4; assay: NCI one-dose SRB growth assay; assay type: cell-based; conditions: Homo sapiens; OVCAR-4 (Ovarian Cancer), 10^-5 M, 48 h; read-out: % Growth Inhibition (GI %)
Method in brief: (§1)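 Read-out: sulforhodamine B protein-binding dye, measured spectrophotometrically, expressed as percent growth of treated versus untreated cells. Cultures received test compound at 10^-5M and were incubated 48 h.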

[2] = test system: PRMI-8226; assay: NCI one-dose SRB growth assay; assay type: cell-based; conditions: Homo sapiens; PRMI-8226 (Leukemia), 10^-5 M, 48 h; read-out: % Growth Inhibition (GI %)
Method in brief: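 Growth percentage versus untreated controls was derived from SRB protein-dye absorbance after cells were incubated 48 h with test compound at a single 10^-5M dose.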

[3] = test system: MOLT-4; assay: NCI one-dose SRB growth assay; assay type: cell-based; conditions: Homo sapiens; MOLT-4 (Leukemia), 10^-5 M, 48 h; read-out: % Growth Inhibition (GI %)
Method in brief: as §1

[4] = test system: CCRF-CEM; assay: NCI one-dose SRB growth assay; assay type: cell-based; conditions: Homo sapiens; CCRF-CEM (Leukemia), 10^-5 M, 48 h; read-out: % Growth Inhibition (GI %)
[5] = test system: NCI/ADR-RES; assay: NCI one-dose SRB growth assay; assay type: cell-based; conditions: Homo sapiens; NCI/ADR-RES (Ovarian Cancer), 10^-5 M, 48 h; read-out: % Growth Inhibition (GI %)
Method in brief: as §1

[6] = test system: SF-295; assay: NCI one-dose SRB growth assay; assay type: cell-based; conditions: Homo sapiens; SF-295 (CNS Cancer), 10^-5 M, 48 h; read-out: % Growth Inhibition (GI %)
Method in brief: as §1

[7] = test system: UO-31; assay: NCI one-dose SRB growth assay; assay type: cell-based; conditions: Homo sapiens; UO-31 (Renal Cancer), 10^-5 M, 48 h; read-out: % Growth Inhibition (GI %)
Method in brief: as §1

[8] = test system: 786-0; assay: NCI one-dose SRB growth assay; assay type: cell-based; conditions: Homo sapiens; 786-0 (Renal Cancer), 10^-5 M, 48 h; read-out: % Growth Inhibition (GI %)
Method in brief: as §1

[9] = test system: 60 human tumor cell line panel; assay: NCI 60 cell line one-dose SRB primary anticancer assay; assay type: cell-based; conditions: 60 cell lines assay in one dose, 10µM (title; head prints 10.0 mM), 48 h; for inhibition at 10 µM: Homo sapiens, read-out: MGI % (Mean growth inhibition percentage)
Experimental: A primary anticancer assay was performed for an approximately 60 human tumor cell line panel derived from nine neoplastic diseases, in accordance with the protocol of the Drug Evaluation Branch, National Cancer Institute, Bethesda, MD (Monks A. et al., J. Natl. Cancer Inst 1991, 83, 757-766; Boyd M.R. and Paull K.D., Drug. Dev. Res. 1995, 34, 91-109; Shoemaker R.H., Nat. Rev. Cancer 2006, 6, 813-823). Briefly, tested compounds were added to the culture at a single concentration (10^-5M), and the cultures were incubated for 48 h. End point determinations were made with a protein binding dye, sulforhodamine B (SRB). The results for each tested compound were reported as the growth percentage of the treated cells when compared to that of the untreated control cells. The percentage growth was evaluated spectrophotometrically versus controls not treated with test agents.

[10] = test system: A498; assay: NCI five-dose SRB growth assay; assay type: cell-based; conditions: Homo sapiens; A498 (Renal Cancer), 48 h
[11] = test system: CNS cancer; assay: NCI five-dose SRB assay, subpanel average; conditions: 48 h
[12] = test system: colon cancer; assay: NCI five-dose SRB assay, subpanel average; conditions: 48 h
[13] = test system: UACC-257; assay: NCI five-dose SRB growth assay; assay type: cell-based; conditions: Homo sapiens; UACC-257 (Melanoma), 48 h
[14] = test system: breast cancer; assay: NCI five-dose SRB assay, subpanel average; conditions: 48 h
[15] = test system: MCF7; assay: NCI five-dose SRB growth assay; assay type: cell-based; conditions: Homo sapiens; MCF7 (Breast Cancer), 48 h
[16] = test system: RXF 393; assay: NCI five-dose SRB growth assay; assay type: cell-based; conditions: Homo sapiens; RXF 393 (Renal Cancer), 48 h
[17] = test system: SK-MEL-5; assay: NCI five-dose SRB growth assay; assay type: cell-based; conditions: Homo sapiens; SK-MEL-5 (Melanoma), 48 h
[18] = test system: ovarian cancer; assay: NCI five-dose SRB assay, subpanel average; conditions: 48 h
[19] = test system: OVCAR-4; assay: NCI five-dose SRB growth assay; assay type: cell-based; conditions: Homo sapiens; OVCAR-4 (Ovarian Cancer), 48 h
[20] = test system: renal cancer; assay: NCI five-dose SRB assay, subpanel average; conditions: 48 h
[21] = test system: full panel of about 60 human tumor cell lines; assay: NCI five-dose SRB assay, full panel mean; conditions: 48 h
[22] = test system: T-47D; assay: NCI five-dose SRB growth assay; assay type: cell-based; conditions: Homo sapiens, T47D; T-47D (Breast Cancer), 48 h
[23] = test system: leukemia; assay: NCI five-dose SRB assay, subpanel average; conditions: 48 h
[24] = test system: OVCAR-8; assay: NCI five-dose SRB growth assay; assay type: cell-based; conditions: Homo sapiens; OVCAR-8 (Ovarian Cancer), 48 h
[25] = test system: prostate cancer; assay: NCI five-dose SRB assay, subpanel average; conditions: 48 h
[26] = test system: CAKI-1; assay: NCI five-dose SRB growth assay; assay type: cell-based; conditions: Homo sapiens; CAKI-1 (Renal Cancer), 48 h
[27] = Homo sapiens, read-out: GI50 (median growth inhibitory)
[28] = Homo sapiens, read-out: LC50 (median lethal)

SMILES: O=C(O)c1cn(C2CC2)c2cc(N3CCN(S(=O)(=O)c4ccc(Cl)cc4Cl)CC3)c(F)cc2c1=O [Compound 2b]
- inhibition at 10 µM [1]: 35.9%
- inhibition at 10 µM [2]: 21.3%
- inhibition at 10 µM [3]: 24.1%
- inhibition at 10 µM [4]: 19%
- inhibition at 10 µM [5]: < 10%
- inhibition at 10 µM [6]: < 10%
- inhibition at 10 µM [7]: 40%
- inhibition at 10 µM [8]: < 10%
- PCE (Positive cytotoxic effect: ratio between number of cell lines with percentage growth inhibition from 10 to >100 and total number of cell lines) [9]: 30/58
- RGI % (Range of growth inhibition percentage) [9]: 79.75 to 11.78%
- inhibition at 10 µM [9]: 17.4%

SMILES: Cc1cc(C)c(S(=O)(=O)N2CCN(c3cc4c(cc3F)c(=O)c(C(=O)O)cn4C3CC3)CC2)c(C)c1 [Compound 6b]
- GI50 [10]: 2370 nM
- GI50 [11, 27]: 2950 nM
- CC50 [11, 28]: > 100 µM
- TGI (total growth inhibitory) ([11]; average over CNS cancer subpanel, five concentrations): c (Compounds showed values > 100µM)
- GI50 [12, 27]: 3.46 µM
- CC50 [12, 28]: > 100 µM
- TGI (total growth inhibitory) ([12]; average over colon cancer subpanel, five concentrations): c (Compounds showed values > 100µM)
- GI50 [13]: > 100 µM
- GI50 [14, 27]: 2850 nM
- CC50 [14, 28]: > 100 µM
- TGI (total growth inhibitory) ([14]; average over breast cancer subpanel, five concentrations): 76.89 µM
- GI50 [15]: 2590 nM
- GI50 [16]: 2410 nM
- GI50 [17]: 3.03 µM
- GI50 [18, 27]: 2890 nM
- CC50 [18, 28]: > 100 µM
- TGI (total growth inhibitory) ([18]; average over ovarian cancer subpanel, five concentrations): c (Compounds showed values > 100µM)
- GI50 [19]: 2370 nM
- GI50 [20, 27]: 2780 nM
- CC50 [20, 28]: > 100 µM
- TGI (total growth inhibitory) ([20]; average over renal cancer subpanel, five concentrations): c (Compounds showed values > 100µM)
- CC50 ([21]; Homo sapiens, 60 cell, read-out: LC50 MG-MID (Full panel mean-graph midpoint)): > 100 µM
- GI50 ([21]; Homo sapiens, read-out: GI50 MG-MID (Full panel mean-graph midpoint)): 3.01 µM
- TGI MG-MID (Full panel mean-graph midpoint) ([21]; full panel, five concentrations): 89.12 µM
- GI50 [22]: 4.81 µM
- GI50 [23, 27]: 2570 nM
- CC50 [23, 28]: > 100 µM
- TGI (total growth inhibitory) ([23]; average over leukemia subpanel, five concentrations): 76.70 µM
- inhibition at 10 µM [1]: 24.4%
- inhibition at 10 µM [2]: 77.7%
- inhibition at 10 µM [3]: 39%
- inhibition at 10 µM [4]: 62.7%
- inhibition at 10 µM [5]: 30.1%
- inhibition at 10 µM [6]: 66.8%
- inhibition at 10 µM [7]: 83.9%
- inhibition at 10 µM [8]: 24.4%
- PCE (Positive cytotoxic effect: ratio between number of cell lines with percentage growth inhibition from 10 to >100 and total number of cell lines) [9]: 56/58
- RGI % (Range of growth inhibition percentage) [9]: 91.28 to 13.08%
- inhibition at 10 µM [9]: 43.8%
- GI50 [24]: 2870 nM
- GI50 [25, 27]: 3.4 µM
- CC50 [25, 28]: > 100 µM
- TGI (total growth inhibitory) ([25]; average over prostate cancer subpanel, five concentrations): c (Compounds showed values > 100µM)
- GI50 [26]: 1800 nM
